Source: patent publication US20230265068A1, “TRANSIENT RECEPTOR POTENTIAL CANONICAL 3 INHIBITORS AND METHODS OF USE THEREOF” (University of Tennessee Research Foundation, priority 2020, published 2023)

Tests used:
[1] = biological target: T1, rTRPV1 (Rattus norvegicus, UniProt O35433); test: whole-cell patch clamp selectivity, HEK 293 cells overexpressing rTRPV1; assay type: cell-based; conditions: HEK293, with agonist, solutions without Ca2+, read-out: % of the current of rTRPV1 inhibited
T1 construct: expressed in transfected cells; host or cells: HEK293, transient transfection, pMO vector
Protocol: (§1) Human embryonic kidney 293 (HEK293; catalog number CRL-1573) cells were cultured in Dulbecco's modified Eagle's medium (Invitrogen) supplemented with 10% fetal bovine serum and 1% penicillin-streptomycin at 37° C. and 5% CO2. Constructs cloned in pMO (a pcDNA3-modified vector) were co-transfected with GFP-pMO, using Lipofectamine 2000 (Invitrogen) according to the manufacturer's instructions. Macroscopic currents in the whole-cell patch clamp configuration were recorded 18-24 h post-transfection. The extracellular solution contained 140 mM NaCl, 6 mM KCl, 2 mM MgCl2, 10 mM HEPES, and 10 mM glucose (pH 7.4). Pipettes were made of borosilicate glass (outer diameter, 1.5 mm; inner diameter, 1.10 mm; Sutter Instruments) and fire-polished with a resistance between 2.8 and 4.0 megaohms when filled with an intracellular solution that contained 140 mM CsCl, 5 mM EGTA, and 10 mM HEPES, pH 7.2. Currents were recorded with a Multiclamp 700B amplifier (Molecular Devices) using a 1-s ramp from −100 to 100 mV. […] Data were acquired with a sampling rate of 20 kHz, low-pass filtered (10 kHz), and analyzed offline using Clampfit v10.4.2.0 (Molecular Devices). […]

[2] = metabolic stability in rat liver microsomes; assay type: in vitro ADME; conditions: rat, microsomes
Protocol: (§2) The metabolic stability of compound 22 was tested prior to the next phase of in vivo study. […] The maximum tolerated dose (MTD) study was subsequently performed to investigate its in vivo toxicity (FIGS. 4A and 4B). The second major limitation of Pyr3 is its toxicity due to its alkylating tail moiety. While replacing only the fast-metabolizing head ester group in Pyr3 with a stable amide (compound 79) improved metabolic stability, a single IP injection of compound 79 at 200 mg/kg killed all mice within 24 h.

[3] = metabolic stability in human liver microsomes; assay type: in vitro ADME; conditions: human, microsomes
Protocol: as §2

[4] = biological target: T2, hTRPM8 (Homo sapiens, UniProt Q7Z2W7); test: whole-cell patch clamp selectivity, HEK 293 cells overexpressing hTRPM8; assay type: cell-based; conditions: HEK293, with agonist, solutions without Ca2+, read-out: % of the current of hTRPM8 inhibited
T2 construct: expressed in transfected cells; host or cells: HEK293, transient transfection, pMO vector
Protocol: as §1

[5] = metabolic stability in mouse liver microsomes; assay type: in vitro ADME; conditions: mouse, microsomes
Protocol: as §2

[6] = biological target: T3, TRPC3 (Homo sapiens, UniProt Q13507); test: LC-MS detection of compound bound to affinity-purified TRPC3 protein after size-exclusion chromatography; assay type: binding; parameters: made in house; conditions: 1 h incubation, free compound removed
T3 sequence (Q13507 1-921): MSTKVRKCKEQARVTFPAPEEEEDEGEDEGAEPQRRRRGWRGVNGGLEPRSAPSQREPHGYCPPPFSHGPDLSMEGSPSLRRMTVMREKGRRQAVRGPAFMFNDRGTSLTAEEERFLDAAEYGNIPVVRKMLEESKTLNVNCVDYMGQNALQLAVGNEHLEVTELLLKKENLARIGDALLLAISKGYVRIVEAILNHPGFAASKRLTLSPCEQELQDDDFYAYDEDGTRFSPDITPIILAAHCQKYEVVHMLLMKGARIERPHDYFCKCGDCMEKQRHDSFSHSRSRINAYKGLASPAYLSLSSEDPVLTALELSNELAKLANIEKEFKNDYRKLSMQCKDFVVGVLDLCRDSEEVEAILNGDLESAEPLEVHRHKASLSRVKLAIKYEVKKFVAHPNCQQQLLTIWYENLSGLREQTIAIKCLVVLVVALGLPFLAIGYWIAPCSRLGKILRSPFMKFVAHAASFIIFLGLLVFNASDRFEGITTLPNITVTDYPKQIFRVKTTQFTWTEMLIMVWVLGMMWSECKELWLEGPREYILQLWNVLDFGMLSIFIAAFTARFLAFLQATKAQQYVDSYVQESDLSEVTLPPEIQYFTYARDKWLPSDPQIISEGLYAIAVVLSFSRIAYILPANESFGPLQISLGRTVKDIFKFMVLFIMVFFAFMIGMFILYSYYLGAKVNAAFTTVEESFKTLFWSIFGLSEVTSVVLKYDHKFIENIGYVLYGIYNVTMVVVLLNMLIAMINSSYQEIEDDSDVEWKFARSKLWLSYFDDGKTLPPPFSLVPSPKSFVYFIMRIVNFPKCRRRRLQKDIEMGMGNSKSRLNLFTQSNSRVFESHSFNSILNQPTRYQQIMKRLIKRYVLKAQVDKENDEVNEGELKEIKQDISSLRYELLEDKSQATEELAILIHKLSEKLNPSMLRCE
Protocol: LC-MS technique was employed to find some evidence of the on-target engagement of compound 22 with TRPC3. Biochemical quantities of affinity-purified TRPC3 protein was successfully generated before and was confirmed by SDS-PAGE.21 After incubation of compound 22 with TRPC3 protein for 1 h, repeated size-exclusion chromatography was used to completely remove free compound 22 from the protein-bound fraction. Methanol was then added to this complex to denature the protein and extract the bound compound.

T2 sequence (Q7Z2W7 whole entry): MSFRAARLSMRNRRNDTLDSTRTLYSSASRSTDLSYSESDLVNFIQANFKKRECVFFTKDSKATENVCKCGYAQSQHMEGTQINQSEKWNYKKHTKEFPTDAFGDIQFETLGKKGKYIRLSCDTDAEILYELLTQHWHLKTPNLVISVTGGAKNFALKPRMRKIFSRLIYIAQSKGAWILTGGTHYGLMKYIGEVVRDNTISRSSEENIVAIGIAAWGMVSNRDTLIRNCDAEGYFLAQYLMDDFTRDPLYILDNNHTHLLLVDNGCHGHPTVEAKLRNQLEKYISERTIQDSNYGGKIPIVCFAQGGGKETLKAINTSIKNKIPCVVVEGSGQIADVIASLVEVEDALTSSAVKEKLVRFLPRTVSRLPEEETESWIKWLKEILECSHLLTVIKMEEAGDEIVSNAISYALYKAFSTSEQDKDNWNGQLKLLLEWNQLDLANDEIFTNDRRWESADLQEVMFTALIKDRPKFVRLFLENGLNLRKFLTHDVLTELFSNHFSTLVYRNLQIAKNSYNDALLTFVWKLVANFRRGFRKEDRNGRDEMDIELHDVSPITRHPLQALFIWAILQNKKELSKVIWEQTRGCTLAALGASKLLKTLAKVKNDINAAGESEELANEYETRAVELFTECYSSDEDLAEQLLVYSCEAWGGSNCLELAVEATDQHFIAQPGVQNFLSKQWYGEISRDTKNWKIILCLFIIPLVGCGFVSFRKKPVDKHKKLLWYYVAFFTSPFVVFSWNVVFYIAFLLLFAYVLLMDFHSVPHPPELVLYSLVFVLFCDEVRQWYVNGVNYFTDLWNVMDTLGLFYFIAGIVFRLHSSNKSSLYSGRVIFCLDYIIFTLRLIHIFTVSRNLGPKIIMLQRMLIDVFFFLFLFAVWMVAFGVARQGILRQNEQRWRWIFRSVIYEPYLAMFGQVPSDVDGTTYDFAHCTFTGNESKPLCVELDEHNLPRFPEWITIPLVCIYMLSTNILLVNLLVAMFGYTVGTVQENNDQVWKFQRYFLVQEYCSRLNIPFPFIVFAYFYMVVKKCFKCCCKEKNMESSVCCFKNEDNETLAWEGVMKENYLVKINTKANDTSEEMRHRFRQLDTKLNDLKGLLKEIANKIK
T1 sequence (O35433 whole entry): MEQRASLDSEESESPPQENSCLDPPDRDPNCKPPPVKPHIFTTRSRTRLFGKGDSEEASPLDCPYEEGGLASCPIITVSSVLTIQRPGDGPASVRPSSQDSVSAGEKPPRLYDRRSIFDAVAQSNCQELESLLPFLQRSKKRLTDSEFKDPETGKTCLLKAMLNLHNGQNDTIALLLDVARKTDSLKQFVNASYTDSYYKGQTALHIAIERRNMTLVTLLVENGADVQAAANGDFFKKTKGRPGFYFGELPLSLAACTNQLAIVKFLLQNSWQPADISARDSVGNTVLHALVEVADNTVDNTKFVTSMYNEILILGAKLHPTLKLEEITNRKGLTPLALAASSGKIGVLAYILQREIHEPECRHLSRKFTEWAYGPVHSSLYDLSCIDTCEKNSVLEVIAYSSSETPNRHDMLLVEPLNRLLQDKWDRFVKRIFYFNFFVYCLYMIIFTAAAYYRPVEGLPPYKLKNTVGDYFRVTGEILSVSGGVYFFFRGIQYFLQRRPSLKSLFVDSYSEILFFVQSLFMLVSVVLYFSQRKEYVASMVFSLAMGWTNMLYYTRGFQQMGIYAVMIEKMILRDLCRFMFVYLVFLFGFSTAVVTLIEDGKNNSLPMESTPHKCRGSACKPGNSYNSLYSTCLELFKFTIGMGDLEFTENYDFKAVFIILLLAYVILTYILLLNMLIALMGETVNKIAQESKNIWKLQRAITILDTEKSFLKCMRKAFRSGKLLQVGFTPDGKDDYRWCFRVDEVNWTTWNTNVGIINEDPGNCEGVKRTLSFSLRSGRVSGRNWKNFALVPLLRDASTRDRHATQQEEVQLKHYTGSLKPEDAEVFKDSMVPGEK

With CCNC(=O)c1cnn(-c2ccc(-n3ccc(Cl)c(Cl)c3=O)cc2)c1C(F)(F)F [Compound 22] the inhibition at 10 µM [1] was < 5%, the half-life [2] was > 4 h and the half-life [3] was > 4 h. For the same molecule, the inhibition at 10 µM [4] was < 5%, the half-life [5] was > 4 h and the “binding to TRPC3 protein (compound detected by LC-MS in extract of purified complex)” value [6] was “direct binding”.
